Like-named read-outs stand apart in the source and are kept apart here.
Experiments:
[1] = Pharmacokinetics of Compound II given orally and intravenously to cancer patients (plasma, LC/MS/MS); format: in vivo, human; conditions: for Tmax / Cmax / bioavailability: human, plasma; for bioavailability: read-out: % F (absolute bioavailability)
Procedure: Patients with Advanced Malignancies were administered Compound II weekly as a 30-minute infusion (a course=3 intravenous weekly administrations). Patients received doses of 1, 2.5, 5, 10, 20, 25, or 30 mg/m^2. […] The dose of oral Compound II administered on Day 6 matched the dose of IV Compound II administered on day 1. Serial plasma sampling was obtained on day 6 and day 1 of course 1 to assess pharmacokinetics by an LC/MS/MS.
Samples were analyzed by adding an internal standard to 0.2 mL of plasma sample, precipitating with acetone, and then extracting the supernatant with 1-chlorobutane. The organic layer was removed and evaporated to dryness. The residue was reconstituted and injected into the LC/MS/MS system. Chromatographic separation was achieved, isocratically, on a YMC ODS-AQ column (4.6×50 mm, 3:m) with a mobile phase of acetonitrile:0.01M ammonium acetate, pH 5.0 (65:35). Detection was by negative electrospray tandem mass spectrometry. The standard curve, which ranged from 2 to 500 ng/mL for all analytes and was fitted to a 1/x weighted quadratic regression model.
The propylene glycol/ethanol mixture was prepared by mixing 80 parts by volume of propylene glycol and 20 parts by volume of ethanol in a suitable container and gently swirling the container until the solution was completely mixed.
Buffer for use with Compound II was constituted with water for injection (WFI).
Compound II was prepared for administration to patients by using a suitable syringe to slowly inject 2.5, 5, or 10 mL of the propylene glycol/ethanol mixture into the 20 cc vial containing 25 mg/vial of Compound II, to give concentrations of 10, 5, or 2.5 mg/mL, respectively, depending on the dose to be administered to the patient. The syringe was removed and the vial shaken vigorously for 10 seconds. The vial was placed in a sonication bath and sonicated until the solution became clear. Vials were pooled depending on the dose.
The bottle was shaken vigorously or sonicated with intermittent shaking until a clear solution was obtained.
Following oral administration on day 6, 7 mL blood samples was collected into Becton Dickinson Vacutainer tubes with K3EDTA as anticoagulent (lavender-colored top) according to the following schedule (expressed as hours:minutes from the start of the oral administration): predose, 00:15, 00:30, 00:45, 1:00, 1:30, 2:00, 3:00, 4:00, 6:00, 8:00, 24:00, 48:00, and 72:00. Following IV administration on day 1, 7 mL blood samples were collected into Becton Dickinson Vacutainer tubes with K3EDTA as anticoagulent (lavender-colored top) according to the following schedule (expressed as hours:minutes from the start of the IV infusion):predose, 00:15, 00:30 (end-of infusion), 00:45, 1:00, 1:30, 2:00, 3:00, 4:00, 6:00, 8:00, 24:00, 48:00, and 72:00.
Immediately after blood collection, the Vacutainer tubes were inverted several times to ensure mixing with the anticoagulant and then immediately placed on crushed ice. Within 30 minutes of collection, samples were centrifuged for 5 minutes at approximately 2000×g and 0 to 5 EC. The plasma was then transferred to separate pre-labeled screw-capped polypropylene tubes and stored at −70 EC until bioanalysis. Plasma concentrations of Compound II were analyzed using the LC/MS/MS assay.
The plasma concentration versus time data were analyzed using non-compartmental methods. The pharmacokinetic parameters determined for Compound II included the maximum observed plasma concentration (Cmax), time to reach Cmax (Tmax), area under the plasma concentration time curve from time zero to the time of last sampling time T(AUC(0-T)).
A total of 18 patients have received oral Compound II as a solution on day 6 and by IV on day 1.

[2] = Dose escalation study of weekly IV Compound II in cancer patients (MTD, dose limiting toxicity); format: in vivo, human; conditions: 30 minute IV infusion every week
Excerpt: (§1) A total of 24 cancer patients (12 male and 12 female) received compound II by IV administration to evaluate the maximum tolerated dose (MTD), the dose limiting toxicity (DLT), the pharmacokinitics and pharmacodynamics, and to evaluate the anti-tumor activity of compound II. The median age (range) of the patients was 57 (34-74). 5 patients had breast cancer, 5 patients had head and neck cancer, 2 patients had sarcoma, 2 patients had colorectal cancer, 2 patients had UPT cancer, 2 patients had melanoma, 2 patients had cancer of the esophagus, 1 patient had renal cancer, 1 patient had cervical cancer, 1 patient had thyroid cancer, and 1 patient had anal cancer. 21 patients had received prior chemotherapy (18 patients received neurotoxic agents and 18 patients received radiotherapy). The median number of prior chemotherapy lines including adjuvant (range) was 2 (1-3).
Patients were orally administered compound II on day 1 (for dose levels of 20 mg/m^2 and higher) followed by a 30 minute IV infusion of compound II every week starting on day 7. Patients were administered compound II at doses of 1, 2.5, 5, 10, 20, 25, and 30 mg/m^2.

breast tumors = test: Anti-tumor response in previously treated cancer patients, breast tumors; format: in vivo, human; conditions: breast cancer patients previously treated with chemotherapy
Excerpt: as §1
(§2) In a second study a total of 12 cancer patients (5 male and 7 female) were orally administered compound II on day 1 followed by a 30 minute IV infusion of compound II every week starting on day 7 at a dose of 25 mg/m^2 to evaluate neurotoxicity of compound II. The median age (range) of the patients was 51 (30-65). 4 patients had colorectal cancer, 3 patients had breast cancer, 2 patients had melanoma, 1 patient had renal cancer, 1 patient had sarcoma, and 1 patient had ovary cancer. […]

colon tumors = test: Anti-tumor response in previously treated cancer patients, colon tumors; format: in vivo, human; conditions: metastatic colon cancer patients previously treated with chemotherapy
Excerpt: as §1, §2

[3] = Stability of the drug during dissolution in tertiary butanol/water and lyophilization; format: physicochemical; conditions: tertiary butanol/Water for Injection 1:1 at 5 EC, lyophilized at −16 EC 48 hours, dried at 15 EC 48 hours, light protected
Procedure: [1S-[1R*,3R*(E),7R*,10S*,11R*,12R*,16S*]]-7,11-Dihydroxy-8,8,10,12,16-pentamethyl-3-[1-methyl-2-(2-methyl-4-thiazolyl)ethenyl]-4-aza-17-oxabicyclo[14.1.0]heptadecane-5,9-dione, 9.86 g, was wetted/partially dissolved with 600 mL of a 9:1 mixture of tertiary butanol and Water for Injection USP which had been pre-cooled to 5 EC. Once the drug powder had become completely wetted, dissolution was completed by the addition of 600 mL of a 1:9 mixture of tertiary butanol and Water for Injection and 766 mL of a 1:1 mixture of tertiary butanol and Water for Injection which likewise had been pre-cooled to 5 EC thereby making the final solution a 1:1 mixture. The dissolution was carried out under protection from light.
The solution formed above was promptly lyophilized in a Virtis INOTOP lyophilizer at −16 EC under light protectant conditions over a period of 48 hours. The resultant lyophilized product (lyophile) was then further dried at 15 EC under high vacuum for 48 hours. […] The lyophile was packaged under sterile conditions into 30 mL vials, each containing 10 mg of drug and standard excess to allow for vial/needle/syringe loss.

With `C/C(=C\c1csc(C)n1)C1C[C@@H]2O[C@]2(C)CCC[C@H](C)[C@H](O)[C@@H](C)C(=O)C(C)(C)[C@@H](O)CC(=O)N1` (relative stereo) [Compound II, [1S-[1R*,3R*(E),7R*,10S*,11R*, 12R*,16S*,]]-7,11-Dihydroxy-8,8,10,12,16-pentamethyl-3-[1-methyl-2-(2-methyl-4-thiazolyl)ethenyl]-4-aza-7-oxabicyclo[14.1.0]heptadecane-5,9-dione] the “AUC(0-T)” value ([1]; 20 mg/m^2, IV, patients N=3, mean) was 796 H · ng/mL, the “AUC(0-T)” value ([1]; 20 mg/m^2, oral solution, patients N=3, mean) was 404 H · ng/mL and the “AUC(0-T)” value ([1]; 25 mg/m^2, IV, patients N=11, mean) was 848 H · ng/mL. For the same compound, the “AUC(0-T)” value ([1]; 25 mg/m^2, oral solution, patients N=11, mean) was 533 H · ng/mL, the “AUC(0-T)” value ([1]; 30 mg/m^2, IV, patients N=4, mean) was 1155 H · ng/mL and the “AUC(0-T)” value ([1]; 30 mg/m^2, oral solution, patients N=4, mean) was 708 H · ng/mL. The Tmax ([1]; 20 mg/m2, 20 mg/m^2, IV, patients N=3, median) was 15 min, the Cmax ([1]; 20 mg/m2, 20 mg/m^2, oral solution, patients N=3, mean) was 142 ng/mL and the Tmax ([1]; 20 mg/m2, 20 mg/m^2, oral solution, patients N=3, median) was 60 min. It also gave a Tmax ([1]; 25 mg/m2, 25 mg/m^2, IV, patients N=11, median) of 30 min, a Cmax ([1]; 25 mg/m2, 25 mg/m^2, oral solution, patients N=11, mean) of 180 ng/mL and a Tmax ([1]; 25 mg/m2, 25 mg/m^2, oral solution, patients N=11, median) of 30 min. The Tmax ([1]; 30 mg/m2, 30 mg/m^2, IV, patients N=4, median) was 30 min, the Cmax ([1]; 30 mg/m2, 30 mg/m^2, oral solution, patients N=4, mean) was 274 ng/mL and the Tmax ([1]; 30 mg/m2, 30 mg/m^2, oral solution, patients N=4, median) was 30 min. It also gave a Cmax ([1]; 20 mg/m^2, IV 30-minute infusion, patients N=3, mean) of 251 ng/mL, a bioavailability ([1]; 20 mg/m^2, oral solution vs IV, patients N=3, mean) of 43.5% and a Cmax ([1]; 25 mg/m^2, IV 30-minute infusion, patients N=11, mean) of 447 ng/mL. For the same compound, the bioavailability ([1]; 25 mg/m^2, oral solution vs IV, patients N=11, mean) was 55.6%, the Cmax ([1]; 30 mg/m^2, IV 30-minute infusion, patients N=4, mean) was 711 ng/mL and the bioavailability ([1]; 30 mg/m^2, oral solution vs IV, patients N=4, mean) was 62.2%. The “weekly dose administered without severe toxicity being observed” value [2] was “up to 30 mg/m^2”, the “tumor response to treatment” value (breast tumors) was “responded” and the “tumor response to treatment” value (colon tumors) was “responded”. For the same compound, the “degradation of the drug during dissolution, lyophilization and drying” value [3] was “No detectable degradation”.
